# Structures can show the parent of a compound that is named as a salt.
# Tested on: NQO1 specific enzyme activity in BEAS-2B cells
# Test: BEAS-2B NQO1 MTT assay
# Assay type: cell-based
# Settings: Homo sapiens, BEAS-2B, 48 h, NQO1 specific enzyme activity induction in BEAS-2B cells, 48 hours; read-out: EC50
# How it was run: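 BEAS-2B cells exposed to compound 48 h at 37° C, 5% CO2, then lysed. NQO1 activity read kinetically in lysate with MTT cocktail (absorbance 570 nm, 30 min); Cell Titer Glo run on a lysate aliquot. pEC50 from ΔOD/min versus log concentration, 3-parameter fit.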
row,Compound,EC50 [µM]
1,"Cc1c(C(CC(=O)O)c2ccc3c(c2)C(N2Cc4cnccc4OC(C)(C)C2)CC3)ccc2c1nnn2C (stereo not drawn) [Example 48, 3-(1,4-Dimethyl-1H-benzo[d][1,2,3]triazol-5-yl)-3-(3-(2,2-dimethyl-2,3-dihydropyrido[3,4-f][1,4]oxazepin-4(5H)-yl)-2,3-dihydro-1H-inden-5-yl)propanoic Acid, Formic Acid Salt]",0.01 to 0.1
2,"Cc1c(C(c2ccc3c(c2)C(N2Cc4cccnc4O[C@@H](C)C2)CC3)C(C)(C)C(=O)O)ccc2c1nnn2C (stereo partly drawn) [Example 49, 3-(1,4-Dimethyl-1H-benzo[d][1,2,3]triazol-5-yl)-2,2-dimethyl-3-(3-((S)-2-methyl-2,3-dihydropyrido[3,2-f][1,4]oxazepin-4(5H)-yl)-2,3-dihydro-1H-inden-5-yl)propanoic Acid, Formic Acid Salt]",0.01 to 0.1
3,"CC[C@@H]1CN(C2CCc3ccc(C(CC(=O)O)c4ccc5c(nnn5C)c4C)cc32)Cc2ccccc2O1 (stereo partly drawn) [Example 50, 3-(1,4-Dimethyl-1H-benzo[d][1,2,3]triazol-5-yl)-3-(3-((R)-2-ethyl-2,3-dihydrobenzo[f][1,4]oxazepin-4(5H)-yl)-2,3-dihydro-1H-inden-5-yl)propanoic Acid, Formic Acid Salt]",0.01 to 0.1
4,Cc1c(C(CC(=O)O)c2ccc3c(c2)C(N2Cc4cccnc4OC(C)(C)C2)CC3)ccc2c1nnn2C (stereo not drawn) [Example 51],0.01 to 0.1
5,"COc1cc(C(CC(=O)O)c2ccc3c(c2)C(N2CCOc4ccccc4C2)CC3)c(C)c2nnn(C)c12 (stereo not drawn) [Example 52, 3-(3-(2,3-Dihydrobenzo[f][1,4]oxazepin-4(5H)-yl)-2,3-dihydro-1H-inden-5-yl)-3-(7-methoxy-1,4-dimethyl-1H-benzo[d][1,2,3]triazol-5-yl)propanoic Acid, Formic Acid Salt]",0.01 to 0.1
6,"Cc1c(C(CC(=O)O)c2ccc3c(c2)C(N2Cc4ccccc4O[C@H](C)C2)CC3)ccc2c1nnn2C (stereo partly drawn) [Example 53, 3-(1,4-Dimethyl-1H-benzo[d][1,2,3]triazol-5-yl)-3-(3-((R)-2-methyl-2,3-dihydrobenzo[f][1,4]oxazepin-4(5H)-yl)-2,3-dihydro-1H-inden-5-yl)propanoic Acid]",0.1 to 1
7,"Cc1c(C(c2ccc3c(c2)C(N2CCOc4ncccc4C2)CC3)C(C)(C)C(=O)O)ccc2c1nnn2C (stereo not drawn) [Example 54, 3-(3-(2,3-Dihydropyrido[3,2-f][1,4]oxazepin-4(5H)-yl)-2,3-dihydro-1H-inden-5-yl)-3-(1,4-dimethyl-1H-benzo[d][1,2,3]triazol-5-yl)-2,2-dimethylpropanoic Acid, Formic Acid Salt, Formic Acid Salt]",0.1 to 1
8,"COc1cc(C(CC(=O)O)c2ccc3c(c2)C(N2Cc4cccnc4OC(C)(C)C2)CC3)cc2nnn(C)c12 (stereo not drawn) [Example 55, 3-(3-(2,2-Dimethyl-2,3-dihydropyrido[3,2-f][1,4]oxazepin-4(5H)-yl)-2,3-dihydro-1H-inden-5-yl)-3-(7-methoxy-1-methyl-1H-benzo[d][1,2,3]triazol-5-yl)propanoic Acid, Formic Acid Salt]",0.1 to 1
9,"Cc1c(C(CC(=O)O)c2ccc3c(c2)C(N2Cc4ccccc4O[C@@H](C)C2)CC3)ccc2c1nnn2C (stereo partly drawn) [Example 56, 3-(1,4-Dimethyl-1H-benzo[d][1,2,3]triazol-5-yl)-3-(3-((S)-2-methyl-2,3-dihydrobenzo[f][1,4]oxazepin-4(5H)-yl)-2,3-dihydro-1H-inden-5-yl)propanoic Acid, Formic Acid Salt]",0.1 to 1
10,"CC[C@@H]1CN(C2CCc3ccc(C(CC(=O)O)c4ccc5c(nnn5C)c4C)cc32)Cc2cnccc2O1 (stereo partly drawn) [Example 57, 3-(1,4-Dimethyl-1H-benzo[d][1,2,3]triazol-5-yl)-3-(3-((R)-2-ethyl-2,3-dihydropyrido[3,4-f][1,4]oxazepin-4(5H)-yl)-2,3-dihydro-1H-inden-5-yl)propanoic Acid, Formic Acid Salt]",0.1 to 1
11,"Cc1c(C(CC(=O)O)c2ccc3c(c2)C(N2CCOc4ccccc4C2)CC3)ccc2c1nnn2C (stereo not drawn) [Example 58, 3-(3-(2,3-Dihydrobenzo[f][1,4]oxazepin-4(5H)-yl)-2,3-dihydro-1H-inden-5-yl)-3-(1,4-dimethyl-1H-benzo[d][1,2,3]triazol-5-yl)propanoic Acid, Formic Acid Salt]",0.1 to 1
12,"Cc1cc(C#N)ccc1C(CC(=O)O)c1ccc2c(c1)C(N1Cc3cccnc3OC(C)(C)C1)CC2 (stereo not drawn) [Example 59, 3-(4-Cyano-2-methylphenyl)-3-(3-(2,2-dimethyl-2,3-dihydropyrido[3,2-f][1,4]oxazepin-4(5H)-yl)-2,3-dihydro-1H-inden-5-yl)propanoic Acid, Formic Acid Salt]",0.1 to 1
13,"Cc1cc(F)ccc1C(CC(=O)O)c1ccc2c(c1)C(N1Cc3cccnc3OC(C)(C)C1)CC2 (stereo not drawn) [Example 60, 3-(3-(2,2-Dimethyl-2,3-dihydropyrido[3,2-f][1,4]oxazepin-4(5H)-yl)-2,3-dihydro-1H-inden-5-yl)-3-(4-fluoro-2-methylphenyl)propanoic Acid, Formic Acid Salt]",0.1 to 1
14,"Cc1c(C(CC(=O)O)c2ccc3c(c2)C(N2Cc4cccnc4O[C@H](C)C2)CC3)ccc2c1nnn2C (stereo partly drawn) [Example 61, 3-(1,4-Dimethyl-1H-benzo[d][1,2,3]triazol-5-yl)-3-(3-((R)-2-methyl-2,3-dihydropyrido[3,2-f][1,4]oxazepin-4(5H)-yl)-2,3-dihydro-1H-inden-5-yl)propanoic Acid, Formic Acid Salt]",1 to 10
15,"Cn1nnc2cc(C(CC(=O)O)c3ccc4c(c3)C(N3Cc5cccnc5OC(C)(C)C3)CC4)ncc21 (stereo not drawn) [Example 62, 3-(3-(2,2-Dimethyl-2,3-dihydropyrido[3,2-f][1,4]oxazepin-4(5H)-yl)-2,3-dihydro-1H-inden-5-yl)-3-(3-methyl-3H-[1,2,3]triazolo[4,5-c]pyridin-6-yl)propanoic Acid, Formic Acid Salt]",1 to 10
16,"CCCc1cn(CCC(CC(=O)O)c2ccc3c(c2)C(N2Cc4ccccc4OC(C)(C)C2)CC3)nn1 (stereo not drawn) [Example 63, 3-(3-(2,2-Dimethyl-2,3-dihydrobenzo[f][1,4]oxazepin-4(5H)-yl)-2,3-dihydro-1H-inden-5-yl)-5-(4-propyl-1H-1,2,3-triazol-1-yl)pentanoic Acid, Trifluoroacetic Acid Salt]",1 to 10
17,"CCn1nnc(CCC(c2ccc3c(c2)C(N2Cc4ccccc4OC(C)(C)C2)CC3)C(C)(C)C(=O)O)n1 (stereo not drawn) [Example 64, 3-(3-(2,2-dimethyl-2,3-dihydrobenzo[f][1,4]oxazepin-4(5H)-yl)-2,3-dihydro-1H-inden-5-yl)-5-(2-ethyl-2H-tetrazol-5-yl)-2,2-dimethylpentanoic Acid, Trifluoroacetic Acid Salt]",0.01 to 0.1
18,"CCCc1cn(CCC(c2ccc3c(c2)C(N2Cc4ccccc4OC(C)(C)C2)CC3)C(C)(C)C(=O)O)nn1 (stereo not drawn) [Example 65, 3-(3-(2,2-Dimethyl-2,3-dihydrobenzo[f][1,4]oxazepin-4(5H)-yl)-2,3-dihydro-1H-inden-5-yl)-2,2-dimethyl-5-(4-propyl-1H-1,2,3-triazol-1-yl)pentanoic Acid, Trifluoroacetic Acid Salt]",0.01 to 0.1
19,"Cc1c(C(CC(=O)O)c2ccc3c(c2)C(N2Cc4ccccc4O[C@H](C)C2)CCC3)ccc2c1nnn2C (stereo partly drawn) [Example 66, 3-(1,4-Dimethyl-1H-benzo[d][1,2,3]triazol-5-yl)-3-(8-((R)-2-methyl-2,3-dihydrobenzo[f][1,4]oxazepin-4(5H)-yl)-5,6,7,8-tetrahydronaphthalen-2-yl)propanoic Acid]",0.1 to 1
20,"Cc1c([C@H](c2ccc3c(c2)[C@H](N2Cc4cnccc4OC(C)(C)C2)CC3)C(C)(C)C(=O)O)ccc2c1nnn2C [Example 86, 3-(1,4-Dimethyl-1H-benzo[d][1,2,3]triazol-5-yl)-3-(3-(2,2-dimethyl-2,3-dihydropyrido[3,4-f][1,4]oxazepin-4(5H)-yl)-2,3-dihydro-1H-inden-5-yl)-2,2-dimethylpropanoic Acid]",< 0.001
21,"CC[C@@H]1CN(C2CCc3ccc(C(CCc4cn(CC)nn4)C(C)(C)C(=O)O)cc32)Cc2cnccc2O1 (stereo partly drawn) [Example 87, 5-(1-Ethyl-1H-1,2,3-triazol-4-yl)-3-(3-((R)-2-ethyl-2,3-dihydropyrido[3,4-f][1,4]oxazepin-4(5H)-yl)-2,3-dihydro-1H-inden-5-yl)-2,2-dimethylpentanoic Acid]",0.01 to 0.1

# Source: patent US10272095B2 (GlaxoSmithKline Intellectual Property Development Limited, priority 2015, dated 2019)
